Data set [1] in a line: Solubility of berberine in NADES and reference solvents (HPLC-DAD). It is filed as physicochemical. The procedure: Samples were placed on a magnetic stirrer (Stuart, Bibby Scientific Ltd., Stone, Staffordshire, UK) at 22 °C for 1 h, then centrifuged for 21 min at 13,000 rpm with a 5415 R centrifuge (Eppendorf, Hamburg, Germany). For quantitative measurement of solubilized berberine, a portion (100 μL) of the clear supernatant obtained after centrifugation was diluted 1:5 (v/v) in ethanol.
For quantification, stock standard solution of berberine (100 μg/mL) was prepared dissolving the analytical standard in methanol using an ultrasonic bath. A calibration curve was obtained injecting standard solutions of berberine at different concentrations, namely 50, 25, 10, 5 and 1 μg/mL. The following calibration curve was obtained: […] (R^2 = 0.9997). The Limit of Quantification (LOQ) was 1 μg/mL.
For HPLC-DAD analysis, an Agilent series 1260 HPLC instrument (Agilent, Cernusco Sul Naviglio, MI, Italy) equipped with a quaternary pump, a diode-array detector, an auto sampler and a column oven compartment was used. Analyses were performed on Eclipse XDB C8 column (5 μm, 4.6 mm × 150 mm, Agilent). The mobile phase was (A) water–formic acid (99:1 v/v) and (B) acetonitrile. A gradient program was used as follows: 0 → 11th min: A:B (90:10) → A:B (0:100) 11 → 12th min: A:B (0:100) → A:B (0:100) 12 → 12, 10th min: A:B (0:100) → A:B (90:10) 12, 10 → 14th min: A:B (90:10) → A:B (90:10). The mobile phase flow rate was 1 mL/min and the injection volume was 10 μL. The chromatogram was recorded at 350 nm and spectral data for all peaks were obtained in the range of 190–400 nm. The retention time of berberine under these analysis conditions was 6.16 min.

For data set [2] the following is noted: human subjects, single oral dose of 500 mg of berberine hydrochloride, cited from earlier work; for time after which the plasma level reaches a plateau: plateau persisted up to 24 h.
On the set-up of data set [3]: method as in PMID 26092760. As to conditions: rats, single oral administration of berberine 200 mg/kg; cited from earlier work.
Data set [4] concerns rat. The following applies: cited from earlier work.
Data set [5] concerns mice. The following applies: cited from earlier work.

The values below come from publication PMC6150298, “Natural Deep Eutectic Solvents (NADES) to Enhance Berberine Absorption: An In Vivo Pharmacokinetic Study” (Molecules : A Journal of Synthetic Chemistry and Natural …, 2017).

As usually defined, the solubility is how much of the substance goes into solution per volume. As usually defined, the LD50 is the dose at which mortality reaches 50%.

Take `COc1ccc2cc3[n+](cc2c1OC)CCc1cc2c(cc1-3)OCO2` [berberine, Berberine]: the concentration in solution in data set [1] (water, 22 °C) (solubility at 1 h) came to 2100 µg/mL. Further, in data set [2], the plasma levels result is “lower than 0.1 nM” and the “time after which the plasma level reaches a plateau” value is listed as “one”. For the same compound, the “total recovery of native compounds” value in data set [3] was 22.83%.

Consider `COc1cc2c(cc1O)CC[n+]1cc3c(OC)c(OC)ccc3cc1-2` [jatrorrhizine], for which, in data set [2], the plasma levels result is listed as “lower than 0.1 nM” and the “time after which the plasma level reaches a plateau” value is listed as 2 h. For the compound `CC(O)C(=O)O` (centres unmarked) [lactic acid], the LD50 in data set [4] is listed as 3543 mg/kg.

On to `O=C(O)CC(O)C(=O)O` (centres unmarked) [malic acid], for which the LD50 in data set [4] is 1600 mg/kg. For `NC(N)=O` [urea], the LD50 in data set [5] is 11,000 mg/kg. As for Ethanol, the “Berberine Solubility at 22 °C” value in data set [1] turned out to be 2750 ± 50 µg/mL.

With Water, in data set [1], the “Berberine Solubility at 22 °C” value worked out at 2100 ± 50 µg/mL.
